The structures appear in SMILES notation.

Data set [1] concerns cervical cancer patients. As to conditions: two weeks after vaccination; PBMC stimulated in vitro with 5 µg/ml PADRE peptide; proliferation index > 5; cited from earlier work.
In data set [2] the target is HLA-A*0101 (Homo sapiens, UniProt P04439, A114D/A174V/A182V/D101N/D185E/E176A/E190D/L180R/Q94H/R68K/S129P/T187R/V100A/V91M/W191G). The data set is described as follows: Class I peptide-binding assay, A*0101. The following applies: Table 18a, CEA-derived A1 binders.
Data set [3] has as its system cervical cancer patients. As to conditions: cited from earlier work.
Data set [4] concerns the target B*3501 (Homo sapiens, UniProt P01889, A329T/A93T/A95T/C349S/D201E/D98Y/E176V/E187L/E204Q/E69T/I218V/K202T/L119I/Q94N/R155S/R180L/S121R/S35A/S48A/T118I/V127L/V306I/V36M/Y140S/Y91F). Kind of data set: Class I peptide-binding assay, B*3501.
Data set [5] has as its target B*5401 (Homo sapiens, UniProt P01889, A329T/C349S/D138N/D201E/E176V/E187T/E204Q/E69G/I76V/K202T/L119W/R155S/R180L/S121T/S35A/S48A/V127L/V306I/V36M/Y140L). Kind of data set: Class I peptide-binding assay, B*5401. The following applies: Table 17a.
Data set [6] addresses HLA-A*2402 (Homo sapiens, UniProt P04439, D101N/D140Y/D185E/E176V/E190D/F33S/G103R/G107R/I119L/I121M/I306V/K335N/L105A/L180Q/L300P/N151K/N90K/Q86E/Q94H/R106L/R138H/R89G/T104I/T345S/V100E/W191G/Y123F). Kind of data set: Class I peptide-binding assay, A*2402. The following applies: Table 19a, CEA-derived A24 binders.
For data set [7], the system named is melanoma patients. As to conditions: melanoma patients vaccinated with peptide-pulsed DC or the peptide alone; cited from earlier work.

On to `CC(C)C[C@H](NC(=O)[C@@H](NC(=O)[C@H](Cc1c[nH]c2ccccc12)NC(=O)[C@H](C)NC(=O)[C@H](C)NC(=O)[C@@H](NC(=O)[C@H](CC1CCCCC1)NC(=O)[C@H](CCCCN)NC(=O)[C@@H](C)N)C(C)C)[C@@H](C)O)C(=O)N[C@@H](CCCCN)C(=O)N[C@@H](C)C(=O)N[C@@H](C)C(=O)N[C@H](C)C(N)=O` [aKXVAAWTLKAAa-NH2], for which the “patients displaying PADRE-specific proliferation” value in data set [1] is given as 4/12.

In the case of `CC[C@H](C)[C@H](N)C(=O)N[C@H](C(=O)N[C@@H](CCC(=O)O)C(=O)N[C@@H](CCCCN)C(=O)N[C@@H](CC(N)=O)C(=O)N[C@@H](CO)C(=O)NCC(=O)N[C@@H](CC(C)C)C(=O)N[C@@H](Cc1ccc(O)cc1)C(=O)O)[C@@H](C)O` [compound 179], the IC50 in data set [2] was 641 nM.

As for `CC(C)C[C@H](NC(=O)[C@@H](NC(=O)[C@H](Cc1c[nH]c2ccccc12)NC(=O)[C@H](C)NC(=O)[C@H](C)NC(=O)[C@@H](NC(=O)[C@H](CC1CCCCC1)NC(=O)[C@H](CCCCN)NC(=O)[C@@H](C)N)C(C)C)[C@@H](C)O)C(=O)N[C@@H](CCCCN)C(=O)N[C@@H](C)C(=O)N[C@@H](C)C(=O)N[C@H](C)C(N)=O` [PADRE, aKXVAAWTLKAAa-NH2], in data set [3] (95% interval 10-65%), the responding patients is 33%. In addition, in data set [3] (patients with recurrent or residual cervical carcinoma), the safety in trial result is recorded as “favorable safety profile”.

On to `CC[C@H](C)[C@H](N)C(=O)N1CCC[C@H]1C(=O)N[C@@H](Cc1c[nH]c2ccccc12)C(=O)N[C@@H](CCC(N)=O)C(=O)N[C@@H](CCCNC(=N)N)C(=O)N[C@@H](CC(C)C)C(=O)N[C@@H](CC(C)C)C(=O)N[C@@H](CC(C)C)C(=O)N[C@H](C(=O)N[C@H](C(=O)O)[C@@H](C)CC)[C@@H](C)O` [CEA.13I10], for which the IC50 in data set [4] (Table 17a) came out at 10000 nM.

In the case of `CC[C@H](C)[C@H](N)C(=O)N1CCC[C@H]1C(=O)N[C@@H](Cc1c[nH]c2ccccc12)C(=O)N[C@@H](CCC(N)=O)C(=O)N[C@@H](CCCNC(=N)N)C(=O)N[C@@H](CC(C)C)C(=O)N[C@@H](CC(C)C)C(=O)N[C@@H](CC(C)C)C(=O)N[C@H](C(=O)N[C@@H](C)C(=O)O)[C@@H](C)O` [CEA.13], the IC50 was determined as 32 nM in data set [5] and 10000 nM in data set [4] (Table 17a).

On to `CC(C)C[C@H](NC(=O)[C@H](CO)NC(=O)[C@H](CCC(N)=O)NC(=O)CNC(=O)[C@H](CC(N)=O)NC(=O)[C@@H](NC(=O)[C@H](Cc1c[nH]c2ccccc12)NC(=O)[C@H](Cc1c[nH]c2ccccc12)NC(=O)[C@@H](N)CC(C)C)C(C)C)C(=O)O` [compound 283], for which, in data set [6], the IC50 came to 1460 nM.

Molecule `CC[C@H](C)[C@H](NC(=O)[C@H](CO)NC(=O)[C@H](Cc1ccc(O)cc1)NC(=O)CNC(=O)[C@H](Cc1ccccc1)NC(=O)[C@H](CC(C)C)NC(=O)[C@H](Cc1c[nH]cn1)NC(=O)[C@H](CCC(N)=O)NC(=O)[C@@H]1CCCN1C(=O)[C@@H](N)CC(C)C)C(=O)O` [CEA.58I10] gave an IC50 in data set [4] (Table 17a) of 10000 nM.

On to `CC[C@H](C)[C@H](NC(=O)[C@@H]1CCCN1C(=O)[C@H](CC(=O)O)NC(=O)[C@@H](NC(=O)[C@@H](N)CCC(=O)O)C(C)C)C(=O)NCC(=O)N[C@@H](Cc1c[nH]cn1)C(=O)N[C@@H](CC(C)C)C(=O)N[C@@H](Cc1ccc(O)cc1)C(=O)O` [MAGE3.168], for which the “tumor regression in vaccinated patients” value in data set [7] is recorded as “tumor regression was observed”.

On to `CC[C@H](C)[C@H](NC(=O)[C@@H]1CCCN1C(=O)[C@H](CC(C)C)NC(=O)[C@@H]1CCCN1C(=O)CNC(=O)[C@H](CCC(=O)O)NC(=O)[C@H](CCCNC(=N)N)NC(=O)[C@@H]1CCCN1C(=O)[C@H](CO)NC(=O)[C@@H]1CCCN1C(=O)[C@@H]1CCCN1)C(=O)O` [Her2/neu.1149.I11], for which, in data set [4] (Table 17b), the IC50 is 1000 nM.

By IC50 is commonly meant the concentration that inhibits the measured activity by half. A high value points to a need for much substance.

The record behind these values is patent EP1903056A2, “HLA-A1, -A2 -A3, -A24, -B7, and -B44 tumor associated antigen peptides and compositions” (priority 2002, dated 2004).
